The values that follow come from ChEMBL document CHEMBL4673260, “Pyridine alkaloids with activity in the central nervous system” (Bioorg Med Chem, 2020).

Series [1] deals with Neuronal acetylcholine receptor; alpha4/beta2 (Homo sapiens, UniProt P17787+P43681). Put plainly: Agonist activity at human brain alpha4beta2 nAChR expressed in Xenopus laevis oocytes assessed as peak response relative to acetylcholine response. It is filed as cell-based. To be noted: Oocyte.
A short description of series [2]: Toxicity in ip dosed albino rat. Conditions: in vivo. It is filed as organism-based.
In series [3] the test system is Rattus norvegicus. Put plainly: Protection against pentylenetetrazol-induced convulsion in rat at 50 to 100 mg/kg, ip relative to control. The series is classed as functional. Conditions: dose 50-100 mg/kg.
For series [4], the species on record is Rattus norvegicus. The series can be described thus: Potentiation of diphenylhydantoin-induced anticonvulsant activity in rat relative to control. It is filed as functional.
For series [5], the species on record is Rattus norvegicus. Put plainly: Potentiation of morphine-induced analgesia in rat relative to control. It is filed as functional.
Series [6] is filed under the species Mus musculus. Put plainly: Antiaggressive activity in mouse assessed as reduction in foot shock induced fighting behavior. It is filed as functional. Details: scale not given: the % may be the effect or the level left.
The species named for series [7] is Mus musculus. Put plainly: Antipsychotic activity in trained mouse assessed as reduction in ability of mouse to remain on rotating rod. The series is classed as functional.
The species named for series [8] is Mus musculus. Put plainly: Antipsychotic activity in albino mouse assessed as potentiation of hexobarbital-induced sleeping time. The series is classed as functional.
The species entered for series [9] is Mus musculus. Put plainly: Antipsychotic activity in mouse assessed as reduction in amphetamine-induced toxicity. Details: scale not given: the % may be the effect or the level left. It is filed as functional.
Series [10] in a line: Toxicity in ip dosed mouse. Conditions: in vivo. It is filed as organism-based.
Series [11] concerns Rattus norvegicus. Put plainly: Antihypertensive activity in spontaneously hypertensive rat assessed as reduction in blood pressure at 50 mg/kg, po measured after 5 hr relative to control. The series is classed as functional. Set-up: scale not given: the % may be the effect or the level left.
Series [12] deals with Rattus norvegicus. Put plainly: Antihypertensive activity in spontaneously hypertensive rat assessed as reduction in blood pressure at 50 mg/kg, po measured after 3 hrs relative to control. Set-up: scale not given: the % may be the effect or the level left. It is filed as functional.
In series [13] the test system is Rattus norvegicus. The series can be described thus: Antihypertensive activity in spontaneously hypertensive rat assessed as reduction in blood pressure at 50 mg/kg, po measured after 1 hr relative to control. The series is classed as functional. Details: scale not given: the % may be the effect or the level left.
Series [14] is filed under the species Rattus norvegicus. Put plainly: Antagonist activity at nAChR in Sprague-Dawley rat striatum assessed as inhibition of nicotine-evoked [3H] dopamine release at 100 nM relative to control. It is filed as tissue-based.
The target in series [15] is Neuronal acetylcholine receptor; alpha4/beta2 (Rattus norvegicus, UniProt P09483+P12390). Put plainly: Inhbition of [3H] nicotine binding to rat brain alpha4beta2 nAChR by Cheng-Prusoff equation analysis.
Series [16] is described as follows: Toxicity in male rat. Conditions: in vivo.
Series [17] can be described thus: Toxicity in female rat. Conditions: in vivo.
Series [18] can be described thus: Neuroprotective activity against NMDA-induced cell death in rat neurons assessed as cell survival pretreated for 45 mins followed by NMDA stimulation and measured after 30 mins by MTT assay (reference value: […]%). To be noted: time 75 min; 1.25 h. The series is classed as functional, Neuron. On the technique in general: Formazan colour is commonly taken as a measure of viable cells.

Series [19] can be described thus: Neuroprotective activity against Bay-K8644-induced calcium mobilization in rat forebrain derived neurons assessed as calcium elevation at 100 nM (reference value: 521 nM). It is filed as functional, Neuron. Background: A change in cytosolic calcium serves as a functional read-out for many receptors and channels.
Series [20] can be described thus: Neuroprotective activity against glutamate-induced calcium mobilization in rat forebrain derived neurons assessed as calcium elevation at 100 nM (reference value: 811 nM). It is filed as functional, Neuron.
A short description of series [21]: Neuroprotective activity against glutamate-induced cell death in rat forebrain derived neurons assessed as neuron death at 100 nM incubated for 45 mins (reference value: 55%). It is filed as functional. To be noted: 0.75 h.
Series [22] has as its target Cholinesterase (Homo sapiens, UniProt P06276). The series can be described thus: Inhibition of BuChE (unknown origin).
Series [23] concerns the target T1, Acetylcholinesterase (Homo sapiens, UniProt P22303).
In series [24] the target is T1, Acetylcholinesterase. Put plainly: Inhibition of human erythrocyte acetylcholinesterase using acetylthiocholine as substrate preincubated for 20 mins followed by substrate addition and measured every 30 secs for 1 hr by Ellman's method. (In Ellman's method for cholinesterases, released thiocholine reacts with DTNB.)
Series [25] concerns the target Dopamine beta-hydroxylase (Bos taurus, UniProt P15101). Put plainly: Inhibition of bovine adrenal medulla DBH incubated for 25 mins.
Series [26] is described as follows: In vivo inhibition of DBH in human assessed as reduction in 3-methoxy-4-hydroxy-phenylglycol level in cerebrospinal fluid at 1.12g administered for 10 to 20 days. The series is classed as functional. To be noted: time 10-20 day.
Series [27] in a line: In vivo inhibition of DBH in rat assessed as norepinephrine expression in rat brain at 100 mg/kg, ip administered as single dose measured after 3 hrs by spectrophotofluorometric analysis (reference value: 0.42 ug/g). It is filed as functional, organism-based.
Series [28] can be described thus: In vivo inhibition of DBH in rat assessed as norepinephrine expression in rat brain at 100 mg/kg, ip administered as single dose measured after 3 hrs by spectrophotofluorometric analysis (reference value: 0.22 ug/g). The series is classed as functional, organism-based.
Series [29] addresses T2, Dopamine beta-hydroxylase (Bos taurus) (UniProt P15101).
T2 sequence (whole entry): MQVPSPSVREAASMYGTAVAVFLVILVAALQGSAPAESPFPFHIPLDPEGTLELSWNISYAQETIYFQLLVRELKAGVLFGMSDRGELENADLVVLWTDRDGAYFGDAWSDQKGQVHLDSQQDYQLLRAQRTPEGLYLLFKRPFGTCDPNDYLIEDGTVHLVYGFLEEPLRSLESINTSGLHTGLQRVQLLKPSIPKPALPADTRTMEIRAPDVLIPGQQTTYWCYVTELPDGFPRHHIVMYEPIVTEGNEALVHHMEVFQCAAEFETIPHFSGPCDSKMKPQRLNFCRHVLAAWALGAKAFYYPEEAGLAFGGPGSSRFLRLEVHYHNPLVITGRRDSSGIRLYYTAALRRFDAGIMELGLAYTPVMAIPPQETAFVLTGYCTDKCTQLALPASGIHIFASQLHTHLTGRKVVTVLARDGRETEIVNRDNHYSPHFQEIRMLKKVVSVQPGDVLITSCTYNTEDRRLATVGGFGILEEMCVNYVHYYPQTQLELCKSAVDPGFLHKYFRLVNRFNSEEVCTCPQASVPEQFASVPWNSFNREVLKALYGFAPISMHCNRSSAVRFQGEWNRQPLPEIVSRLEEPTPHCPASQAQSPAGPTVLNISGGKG
Put plainly: Inhibition of bovine adrenal medulla DBH at 0.5 uM relative to control.

The target in series [30] is T2, Dopamine beta-hydroxylase (Bos taurus). Put plainly: Inhibition of bovine adrenal medulla DBH at 1 uM relative to control.
Series [31] has the same target. Put plainly: Inhibition of bovine adrenal medulla DBH at 0.05 uM relative to control.
Series [32] has the same target. The series can be described thus: Inhibition of bovine adrenal medulla DBH at 0.005 uM relative to control.
Series [33] is described as follows: Selectivity ratio of Ki for horse serum BuChE to Ki for human erythrocyte acetylcholinesterase.
In series [34] the target is Cholinesterase (Equus caballus, UniProt P81908). Put plainly: Inhibition of horse serum BuChE by Ellman's colorimetric method.
For series [35], the target named is T1, Acetylcholinesterase. The series can be described thus: Inhibition of human erythrocyte acetylcholinesterase using acetylthiocholine as substrate by Ellman's colorimetric method.

Bounds are passed on as bounds.

T1 sequence (P22303 whole entry): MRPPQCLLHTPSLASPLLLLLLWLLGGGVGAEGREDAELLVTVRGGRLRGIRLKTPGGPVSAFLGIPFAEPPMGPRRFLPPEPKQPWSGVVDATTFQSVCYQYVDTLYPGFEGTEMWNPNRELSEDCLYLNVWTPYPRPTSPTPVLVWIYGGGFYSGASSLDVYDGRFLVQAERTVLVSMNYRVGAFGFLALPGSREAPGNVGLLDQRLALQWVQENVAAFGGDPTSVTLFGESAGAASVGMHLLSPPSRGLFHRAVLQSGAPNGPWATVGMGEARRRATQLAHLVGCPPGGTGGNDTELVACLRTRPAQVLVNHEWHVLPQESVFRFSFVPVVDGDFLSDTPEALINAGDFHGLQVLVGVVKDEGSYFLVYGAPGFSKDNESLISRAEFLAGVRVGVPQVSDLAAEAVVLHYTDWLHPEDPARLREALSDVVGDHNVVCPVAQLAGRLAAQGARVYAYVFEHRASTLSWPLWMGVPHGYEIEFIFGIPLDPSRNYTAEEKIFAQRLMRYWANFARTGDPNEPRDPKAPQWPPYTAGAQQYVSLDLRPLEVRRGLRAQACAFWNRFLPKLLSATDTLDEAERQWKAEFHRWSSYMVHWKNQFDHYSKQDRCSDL
Chain of Cholinesterase (Equus caballus, UniProt P81908) (P81908 whole entry): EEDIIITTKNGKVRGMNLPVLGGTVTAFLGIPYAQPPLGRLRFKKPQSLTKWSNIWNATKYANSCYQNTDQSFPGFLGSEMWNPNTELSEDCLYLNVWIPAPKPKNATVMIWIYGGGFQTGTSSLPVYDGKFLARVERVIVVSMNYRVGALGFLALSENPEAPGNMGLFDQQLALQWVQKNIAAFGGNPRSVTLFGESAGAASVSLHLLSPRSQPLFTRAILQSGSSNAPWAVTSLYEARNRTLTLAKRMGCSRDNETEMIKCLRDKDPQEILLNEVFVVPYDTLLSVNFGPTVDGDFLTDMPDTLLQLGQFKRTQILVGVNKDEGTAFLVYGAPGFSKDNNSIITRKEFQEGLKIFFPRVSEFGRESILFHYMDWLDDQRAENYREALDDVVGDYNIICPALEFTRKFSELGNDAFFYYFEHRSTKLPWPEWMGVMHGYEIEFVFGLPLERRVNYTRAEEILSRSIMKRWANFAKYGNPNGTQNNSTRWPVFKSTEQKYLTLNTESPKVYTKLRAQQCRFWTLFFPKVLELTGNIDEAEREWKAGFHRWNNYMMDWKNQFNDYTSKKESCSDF
Chain of Neuronal acetylcholine receptor; alpha4/beta2 (Rattus norvegicus, UniProt P09483+P12390) (P09483 whole entry): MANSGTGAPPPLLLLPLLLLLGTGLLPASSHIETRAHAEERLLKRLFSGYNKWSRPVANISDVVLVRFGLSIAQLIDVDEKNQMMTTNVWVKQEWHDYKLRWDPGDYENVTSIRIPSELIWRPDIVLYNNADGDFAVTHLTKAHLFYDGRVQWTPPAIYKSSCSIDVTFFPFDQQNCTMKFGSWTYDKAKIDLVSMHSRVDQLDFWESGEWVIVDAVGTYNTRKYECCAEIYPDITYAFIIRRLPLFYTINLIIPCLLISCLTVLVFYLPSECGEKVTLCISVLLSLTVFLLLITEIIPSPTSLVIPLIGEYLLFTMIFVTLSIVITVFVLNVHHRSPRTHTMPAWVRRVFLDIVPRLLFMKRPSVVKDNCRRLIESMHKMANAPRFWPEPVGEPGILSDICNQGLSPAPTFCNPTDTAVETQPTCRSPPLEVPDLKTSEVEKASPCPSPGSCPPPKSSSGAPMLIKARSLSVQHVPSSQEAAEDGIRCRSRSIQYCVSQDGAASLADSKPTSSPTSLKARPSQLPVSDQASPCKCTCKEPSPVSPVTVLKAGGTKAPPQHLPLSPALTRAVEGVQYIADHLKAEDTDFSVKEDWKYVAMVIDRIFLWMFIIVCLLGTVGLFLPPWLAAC
Chain of Neuronal acetylcholine receptor; alpha4/beta2 (Rattus norvegicus, UniProt P09483+P12390) (P12390 whole entry): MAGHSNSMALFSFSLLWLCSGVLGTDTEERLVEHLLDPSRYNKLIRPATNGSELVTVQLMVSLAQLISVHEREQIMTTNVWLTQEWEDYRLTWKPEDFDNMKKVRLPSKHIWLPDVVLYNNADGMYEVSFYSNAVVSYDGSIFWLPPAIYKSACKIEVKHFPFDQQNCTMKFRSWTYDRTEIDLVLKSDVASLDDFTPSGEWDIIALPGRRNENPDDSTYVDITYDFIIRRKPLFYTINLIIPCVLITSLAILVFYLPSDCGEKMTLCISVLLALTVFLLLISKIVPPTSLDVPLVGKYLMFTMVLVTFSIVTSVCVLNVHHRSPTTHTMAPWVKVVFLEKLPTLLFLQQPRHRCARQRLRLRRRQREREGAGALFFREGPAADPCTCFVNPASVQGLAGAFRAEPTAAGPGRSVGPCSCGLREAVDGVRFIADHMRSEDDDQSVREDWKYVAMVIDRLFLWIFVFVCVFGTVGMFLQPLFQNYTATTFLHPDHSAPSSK
Chain of Cholinesterase (Homo sapiens, UniProt P06276) (P06276 whole entry): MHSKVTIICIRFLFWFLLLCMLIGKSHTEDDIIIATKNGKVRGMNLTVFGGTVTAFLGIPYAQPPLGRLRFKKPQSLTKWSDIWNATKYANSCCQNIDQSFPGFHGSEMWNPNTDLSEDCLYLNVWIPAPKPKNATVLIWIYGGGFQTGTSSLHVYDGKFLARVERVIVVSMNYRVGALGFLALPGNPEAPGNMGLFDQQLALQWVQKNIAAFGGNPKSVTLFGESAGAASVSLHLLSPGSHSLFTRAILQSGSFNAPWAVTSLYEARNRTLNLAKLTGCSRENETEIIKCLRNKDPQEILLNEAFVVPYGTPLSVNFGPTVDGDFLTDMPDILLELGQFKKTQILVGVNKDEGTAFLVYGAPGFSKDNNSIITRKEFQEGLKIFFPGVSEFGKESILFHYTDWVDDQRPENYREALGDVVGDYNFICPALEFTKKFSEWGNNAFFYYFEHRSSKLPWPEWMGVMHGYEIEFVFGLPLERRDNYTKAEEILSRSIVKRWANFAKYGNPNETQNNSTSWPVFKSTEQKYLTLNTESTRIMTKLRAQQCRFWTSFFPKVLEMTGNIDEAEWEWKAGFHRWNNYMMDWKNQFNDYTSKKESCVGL

As for `C1=CC[C@H](c2cccnc2)NC1`, in [1], the Imax is 25%.

The LD50 is the dose at which mortality reaches 50%. In the case of `C=Cc1cncc2c1CCOC2=O`, the LD50 in series [2] is 276 mg/kg. The Activity with Rattus norvegicus [3] amounted to 70%; in the series listed under Rattus norvegicus [4], 60%; in the series filed under Rattus norvegicus [5], 150%; in the series filed under Mus musculus [6] it was 60%; in the series filed under Mus musculus [7], 80%; in the series listed under Mus musculus [8], 80%. In addition, the Activity in the series listed under Mus musculus [9] was determined as 88%.

With `O=C(O)c1ccc(Cc2ccc(O)cc2)cn1`, the LD50 in [10] amounted to 350 mg/kg. Also, the Activity was 23% in the series on Rattus norvegicus [11], 16% in the series on Rattus norvegicus [12] and 21% with Rattus norvegicus [13].

As usually defined, the inhibition is the drop in the measured response relative to a control, in per cent. In general, Ki refers to a dissociation constant, usually derived from enzyme kinetics or from competition with a known ligand. For the molecule `CN1CCC[C@H]1c1cncc([C@@H]2CCCN2C)c1`, the inhibition in the series listed under Rattus norvegicus [14] was below 64%. In [15], this molecule came in with a Ki of 1.18 µM.

On to `C/C=C1\[C@H]2C=C(C)C[C@]1(N)c1ccc(=O)[nH]c1C2` [HUPERZINE A], for which the LD50 was above 4 mg/kg in [16] and 2 mg/kg in series [17]. Further, the Activity in series [18] is 85%; in series [19], 505 nM; in series [20], 668 nM; in series [21], 30%.

With `CC1=C[C@@H]2Cc3[nH]c(=O)ccc3[C@]3(C1)NCCC[C@H]23`, the IC50 came to 169 µM on Cholinesterase [22] and 2.57 µM against Acetylcholinesterase [23].

In the case of `C/C=C1\C2C=C(C)CC1(NCC(=O)OC)c1ccc(=O)[nH]c1C2` (stereo not given), at Acetylcholinesterase [24], the IC50 amounted to 6.71 µM.

`CCCCc1ccc(C(=O)O)nc1` [FUSARIC ACID]: the IC50 in series [25] was found to be 0.05 µM; in series [27], 0.4 µg/g; in series [28] it was 0.1 µg/g. Moreover, in [26], the “inhibition (INH)” value was determined as 25%. For the same molecule, the inhibition in series [29] was 89%; in series [30] it was 92%; in series [31], 58%; in [32], 20%.

For `CN1CCCC[C@H]1c1ccc(-c2cccnc2)nc1`, the Ratio Ki in series [33] worked out at 8.6. Besides, the Ki on Cholinesterase [34] came out at 440 µM; at Acetylcholinesterase [35], 51 µM.
